This is an account of results in the supplement of paper PMC10307832.

Experiment in all cases: relative viability (nuclei count vs DMSO), 5 days (fraction); higher = more cells survive
Compound in assay [1]: CC1(C)CCC(CN2CCN(c3ccc(C(=O)NS(=O)(=O)c4ccc(NCC5CCOCC5)c([N+](=O)[O-])c4)c(Oc4cnc5[nH]ccc5c4)c3)CC2)=C(c2ccc(Cl)cc2)C1 [Venetoclax] + C[C@@H](Oc1cc(-c2cnn(C3CCNCC3)c2)cnc1N)c1c(Cl)ccc(F)c1Cl [Crizotinib] (partner 1 µM)
Put shortly: (§1)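 Each reported value is a median over duplicate plates. It expresses relative viability: treated-well nuclei count divided by vehicle-well nuclei count. Lung cancer cell lines in 1536-well plates were dosed by pin tool a day after seeding, alone with one drug or with a fixed anchor-drug dose plus five library-drug doses (not always all listed) in √10 steps, and nuclei were counted after 5 days.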

Compound in assay [2]: Cn1cnc2c(F)c(Nc3ccc(Br)cc3Cl)c(C(=O)NOCCO)cc21 [Selumetinib] + CC(C)C[C@H](NC(=O)[C@H](Cc1ccccc1)NC(=O)c1cnccn1)B(O)O [Bortezomib] (partner 0.002 µM)
Put shortly:
as §1

Compound in assay [3]: CC1(C)CCC(CN2CCN(c3ccc(C(=O)NS(=O)(=O)c4ccc(NCC5CCOCC5)c([N+](=O)[O-])c4)c(Oc4cnc5[nH]ccc5c4)c3)CC2)=C(c2ccc(Cl)cc2)C1 [Venetoclax] + CC(C)C[C@H](NC(=O)[C@H](Cc1ccccc1)NC(=O)c1cnccn1)B(O)O [Bortezomib] (partner 0.002 µM)
The gist of the method:
as §1

Compound in assay [4]: Cn1cnc2c(F)c(Nc3ccc(Br)cc3Cl)c(C(=O)NOCCO)cc21 [Selumetinib] + NC(=O)Nc1cc(-c2cccc(F)c2)sc1C(=O)N[C@H]1CCCNC1 [AZD7762] (partner 0.2 µM)
The gist of the method:
as §1

As for PC-14, the relative viability in assay [1] (first compound 0.01 µM) is 0.844; in assay [1] (first compound 0.03162 µM), 0.972; in assay [1] (first compound 0.1 µM), 1.06; in assay [1] (first compound 0.3162 µM) it was 0.864; in assay [1] (first compound 1 µM), 0.801; in assay [2] (first compound 0.02 µM), 0.889. The relative viability in assay [2] (first compound 0.06325 µM) was 0.815; in assay [2] (first compound 0.2 µM), 0.926; in assay [2] (first compound 0.6325 µM), 0.766; in assay [3] (first compound 0.01 µM), 0.765; in assay [3] (first compound 0.03162 µM), 0.939; in assay [3] (first compound 0.1 µM), 0.843. In addition, the relative viability in assay [3] (first compound 0.3162 µM) turned out to be 0.839; in assay [3] (first compound 1 µM) it was 0.789; in assay [4] (first compound 0.02 µM) it was 0.364; in assay [4] (first compound 0.06325 µM) it was 0.397; in assay [4] (first compound 0.2 µM) it was 0.276; in assay [4] (first compound 0.6325 µM), 0.313.

Consider BEN, for which the relative viability in assay [1] (first compound 0.01 µM) was determined as 0.825; in assay [1] (first compound 0.03162 µM), 0.81; in assay [1] (first compound 0.1 µM), 0.727; in assay [1] (first compound 0.3162 µM) it was 0.851; in assay [1] (first compound 1 µM), 0.817; in assay [2] (first compound 0.02 µM) it was 0.779. In addition, the relative viability in assay [2] (first compound 0.06325 µM) was 0.854; in assay [2] (first compound 0.2 µM), 0.686; in assay [2] (first compound 0.6325 µM), 0.834; in assay [3] (first compound 0.01 µM), 0.61; in assay [3] (first compound 0.03162 µM), 1.06; in assay [3] (first compound 0.1 µM), 0.868. Besides, the relative viability in assay [3] (first compound 0.3162 µM) came to 0.837; in assay [3] (first compound 1 µM), 0.749; in assay [4] (first compound 0.02 µM) it was 0.587; in assay [4] (first compound 0.06325 µM) it was 0.624; in assay [4] (first compound 0.2 µM), 0.634; in assay [4] (first compound 0.6325 µM), 0.736.

For LOU-NH91, the relative viability stood at 0.751 in assay [1] (first compound 0.01 µM); 0.751 in assay [1] (first compound 0.03162 µM); 0.756 in assay [1] (first compound 0.1 µM); 0.729 in assay [1] (first compound 0.3162 µM); 0.697 in assay [1] (first compound 1 µM); 0.465 in assay [2] (first compound 0.02 µM). Further, the relative viability in assay [2] (first compound 0.06325 µM) amounted to 0.479; in assay [2] (first compound 0.2 µM), 0.476; in assay [2] (first compound 0.6325 µM), 0.479; in assay [3] (first compound 0.01 µM), 0.487; in assay [3] (first compound 0.03162 µM) it was 0.477; in assay [3] (first compound 0.1 µM) it was 0.558. The relative viability in assay [3] (first compound 0.3162 µM) was 0.473; in assay [3] (first compound 1 µM), 0.456; in assay [4] (first compound 0.02 µM) it was 0.754; in assay [4] (first compound 0.06325 µM), 0.758; in assay [4] (first compound 0.2 µM) it was 0.696; in assay [4] (first compound 0.6325 µM), 0.733.

For the cell line EKVX, the relative viability in assay [1] (first compound 0.01 µM) was 0.834; in assay [1] (first compound 0.03162 µM), 0.985; in assay [1] (first compound 0.1 µM) it was 0.897; in assay [1] (first compound 0.3162 µM) it was 0.895; in assay [1] (first compound 1 µM), 0.882; in assay [2] (first compound 0.02 µM), 0.858. In addition, the relative viability in assay [2] (first compound 0.06325 µM) worked out at 0.795; in assay [2] (first compound 0.2 µM), 0.543; in assay [2] (first compound 0.6325 µM) it was 0.748; in assay [3] (first compound 0.01 µM) it was 1.04; in assay [3] (first compound 0.03162 µM), 1.05; in assay [3] (first compound 0.1 µM), 1.04. Further, the relative viability in assay [3] (first compound 0.3162 µM) came to 1.14; in assay [3] (first compound 1 µM) it was 0.842; in assay [4] (first compound 0.02 µM), 0.713; in assay [4] (first compound 0.06325 µM), 0.594; in assay [4] (first compound 0.2 µM), 0.613; in assay [4] (first compound 0.6325 µM), 0.502.

Consider NCI-H1355, for which the relative viability came to 1.07 in assay [1] (first compound 0.01 µM); 1.14 in assay [1] (first compound 0.03162 µM); 1.07 in assay [1] (first compound 0.1 µM); 0.984 in assay [1] (first compound 0.3162 µM); 1.04 in assay [1] (first compound 1 µM); 1.18 in assay [2] (first compound 0.02 µM). Moreover, the relative viability in assay [2] (first compound 0.06325 µM) came out at 1.17; in assay [2] (first compound 0.2 µM), 0.884; in assay [2] (first compound 0.6325 µM), 0.822; in assay [3] (first compound 0.01 µM), 1.27; in assay [3] (first compound 0.03162 µM) it was 1.23; in assay [3] (first compound 0.1 µM), 1.2. The relative viability in assay [3] (first compound 0.3162 µM) was 1.11; in assay [3] (first compound 1 µM), 1.18; in assay [4] (first compound 0.02 µM), 0.818; in assay [4] (first compound 0.06325 µM), 0.711; in assay [4] (first compound 0.2 µM), 0.748; in assay [4] (first compound 0.6325 µM), 0.565.

On to ABC-1, for which the relative viability in assay [1] (first compound 0.01 µM) was determined as 0.921; in assay [1] (first compound 0.03162 µM), 0.99; in assay [1] (first compound 0.1 µM), 1.06; in assay [1] (first compound 0.3162 µM) it was 1.12; in assay [1] (first compound 1 µM) it was 1.04; in assay [2] (first compound 0.02 µM), 0.279. Further, the relative viability in assay [2] (first compound 0.06325 µM) was found to be 0.258; in assay [2] (first compound 0.2 µM), 0.275; in assay [2] (first compound 0.6325 µM), 0.291; in assay [3] (first compound 0.01 µM), 0.291; in assay [3] (first compound 0.03162 µM) it was 0.314; in assay [3] (first compound 0.1 µM), 0.446. Besides, the relative viability in assay [3] (first compound 0.3162 µM) was 0.31; in assay [3] (first compound 1 µM) it was 0.309; in assay [4] (first compound 0.02 µM), 0.871; in assay [4] (first compound 0.06325 µM), 0.591; in assay [4] (first compound 0.2 µM), 0.66; in assay [4] (first compound 0.6325 µM), 0.578.

On to NCI-H727, for which the relative viability in assay [1] (first compound 0.01 µM) was 0.838; in assay [1] (first compound 0.03162 µM), 0.922; in assay [1] (first compound 0.1 µM), 0.912; in assay [1] (first compound 0.3162 µM), 0.976; in assay [1] (first compound 1 µM) it was 0.673; in assay [2] (first compound 0.02 µM), 0.58. In addition, the relative viability in assay [2] (first compound 0.06325 µM) stood at 0.351; in assay [2] (first compound 0.2 µM), 0.359; in assay [2] (first compound 0.6325 µM), 0.337; in assay [3] (first compound 0.01 µM), 0.938; in assay [3] (first compound 0.03162 µM), 1.19; in assay [3] (first compound 0.1 µM), 0.833. Moreover, the relative viability in assay [3] (first compound 0.3162 µM) was determined as 0.862; in assay [3] (first compound 1 µM) it was 0.888; in assay [4] (first compound 0.02 µM), 0.455; in assay [4] (first compound 0.06325 µM), 0.428; in assay [4] (first compound 0.2 µM), 0.322; in assay [4] (first compound 0.6325 µM), 0.427.

As to NCI-H1666, the relative viability came to 0.94 in assay [1] (first compound 0.01 µM); 0.985 in assay [1] (first compound 0.03162 µM); 1.02 in assay [1] (first compound 0.1 µM); 1 in assay [1] (first compound 0.3162 µM); 0.916 in assay [1] (first compound 1 µM); 0.595 in assay [2] (first compound 0.02 µM). Further, the relative viability came to 0.586 in assay [2] (first compound 0.06325 µM); 0.63 in assay [2] (first compound 0.2 µM); 0.495 in assay [2] (first compound 0.6325 µM); 0.773 in assay [3] (first compound 0.01 µM); 0.931 in assay [3] (first compound 0.03162 µM); 0.676 in assay [3] (first compound 0.1 µM). In addition, the relative viability in assay [3] (first compound 0.3162 µM) turned out to be 0.706; in assay [3] (first compound 1 µM), 0.593; in assay [4] (first compound 0.02 µM), 0.853; in assay [4] (first compound 0.06325 µM), 0.758; in assay [4] (first compound 0.2 µM) it was 0.759; in assay [4] (first compound 0.6325 µM), 0.732.
